In publication PMC6664820, “Novel natural and synthetic inhibitors of solute carriers SGLT1 and SGLT2” (Pharmacology Research & Perspectives, 2019):
“Also recorded” adds a separate entry of the source. Like-named read-outs stand apart in the source and are kept apart here.

Columns and labels:
transporters = tested on: transporters; design: method as in earlier work; conditions: known transporter targets, per category of inhibited transporters, cited from earlier work
hSGLT2 [1] = target: T1, hSGLT2 (Homo sapiens, UniProt P31639); experiment: SGLT2 inhibition assay for validation of screening hits and similar compounds (1‐NBD‐glucose uptake, CHO‐hSGLT2 cells); format: cell-based; design: activity: dose or concentration left out as unconfirmed; conditions: for IC50: 1‐NBD‐glucose uptake, CHO‐hSGLT2, mean of n biological replicates, or individual measurements where n=2, read-out: SGLT2‐IC50 Mean; for inhibition at 50 µM: mean inhibition with 50 μmol/L inhibitor; for remaining activity at 5 µM / remaining activity at 50 µM: 0.5 h, concentration not given, read-out: NORMALIZED SGLT2 ACTIVITY (%); for remaining activity at 5 µM / remaining activity at 50 µM / activity: mean; for activity: compound, normalized 1-NBD-glucose uptake, CHO-hSGLT2 cells; for SGLT2/SGLT1 ACTIVITY RATIO 5 uM Mean: ratio of normalized SGLT2 to SGLT1 activity at 5 uM
T1 sequence (P31639 1-672): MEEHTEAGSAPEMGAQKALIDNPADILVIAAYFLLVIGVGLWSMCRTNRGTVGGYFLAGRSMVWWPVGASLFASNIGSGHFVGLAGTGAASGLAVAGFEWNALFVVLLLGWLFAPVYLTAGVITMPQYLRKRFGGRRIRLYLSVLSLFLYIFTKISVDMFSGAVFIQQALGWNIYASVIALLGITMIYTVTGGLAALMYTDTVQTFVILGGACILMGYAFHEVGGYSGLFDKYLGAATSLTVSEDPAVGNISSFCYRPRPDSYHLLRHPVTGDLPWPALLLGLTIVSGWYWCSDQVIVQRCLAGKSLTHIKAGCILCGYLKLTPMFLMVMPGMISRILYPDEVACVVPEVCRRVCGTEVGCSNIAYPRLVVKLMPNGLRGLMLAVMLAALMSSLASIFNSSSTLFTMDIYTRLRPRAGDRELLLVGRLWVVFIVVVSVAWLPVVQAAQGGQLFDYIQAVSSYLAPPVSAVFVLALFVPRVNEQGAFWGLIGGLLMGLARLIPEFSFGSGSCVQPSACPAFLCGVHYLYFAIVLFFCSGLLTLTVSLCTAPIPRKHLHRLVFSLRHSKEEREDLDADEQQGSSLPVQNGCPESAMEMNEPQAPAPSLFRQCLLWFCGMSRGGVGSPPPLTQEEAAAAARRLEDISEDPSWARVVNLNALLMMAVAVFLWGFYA

SGLT1 [2] = target: T2, SGLT1 (Homo sapiens, UniProt P13866); experiment: SGLT1 inhibition assay for validation of screening hits and similar compounds (1‐NBD‐glucose uptake, CHO‐hSGLT1 cells); format: cell-based; design: activity: dose or concentration left out as unconfirmed; conditions: for IC50: 1‐NBD‐glucose uptake, CHO‐hSGLT1, mean of n biological replicates, or individual measurements where n=2, read-out: SGLT1‐IC50 Mean; for SGLT1/2 inhibition stated in words: SGLT1 and/or SGLT2, discussion statements; for inhibition at 50 µM: mean inhibition with 50 μmol/L inhibitor, read-out: SGLT1 inhibition; for remaining activity at 5 µM / remaining activity at 50 µM: 0.5 h, concentration not given, read-out: NORMALIZED SGLT1 ACTIVITY (%); for remaining activity at 5 µM / remaining activity at 50 µM / activity: mean; for activity: compound, normalized 1-NBD-glucose uptake, CHO-hSGLT1 cells
T2 sequence (P13866 1-664): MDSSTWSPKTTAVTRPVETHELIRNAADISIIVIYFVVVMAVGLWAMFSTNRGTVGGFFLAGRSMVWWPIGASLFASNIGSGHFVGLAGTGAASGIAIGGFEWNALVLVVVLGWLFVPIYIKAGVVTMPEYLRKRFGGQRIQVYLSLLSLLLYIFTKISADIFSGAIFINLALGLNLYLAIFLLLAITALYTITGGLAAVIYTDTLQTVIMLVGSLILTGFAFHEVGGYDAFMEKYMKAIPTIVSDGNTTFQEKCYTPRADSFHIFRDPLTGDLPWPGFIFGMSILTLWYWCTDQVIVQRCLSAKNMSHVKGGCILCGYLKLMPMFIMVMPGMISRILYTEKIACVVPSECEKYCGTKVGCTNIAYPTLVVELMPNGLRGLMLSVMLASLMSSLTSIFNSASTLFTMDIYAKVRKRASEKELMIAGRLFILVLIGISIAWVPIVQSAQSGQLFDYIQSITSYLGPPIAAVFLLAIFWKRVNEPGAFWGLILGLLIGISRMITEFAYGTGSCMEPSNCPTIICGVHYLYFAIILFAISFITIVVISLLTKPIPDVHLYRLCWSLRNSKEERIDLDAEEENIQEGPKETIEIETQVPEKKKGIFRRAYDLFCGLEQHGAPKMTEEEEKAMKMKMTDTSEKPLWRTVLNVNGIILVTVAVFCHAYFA

CHO‐hSGLT1/2 cells = experiment: Cytotoxicity assay (ToxiLight, adenylate kinase leakage into CHO‐SGLT1/2 inhibition assay media); design: CYTOTOXICITY / CY[…], mean / CYTOTOXICITY (% of vehicle control) Mean / CYTOTOXICITY, mean / CY[…] (% of vehicle control) Mean: dose or concentration left out as unconfirmed; conditions: mean;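 note: bioluminescent read-out of adenylate kinase released from lysed cells into the medium, given relative to DMSO vehicle control defined as 0%, higher meaning more cytolysis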
Protocol: The cytotoxicity of representative SGLT1/2 inhibitors and compounds from the different chemical clusters was tested. Cytotoxicity was determined using the ToxiLight bioassay kit according to the supplier's instructions. This nondestructive assay measures leakage of the enzyme adenylate kinase (AK) from damaged cells into the CHO‐SGLT1/2 inhibition assay media, ie the degree of cytolysis. […] Next, bioluminescence was measured using a FlexStation 3 Multi‐Mode Microplate Reader (Molecular Devices) by 1 second integrated reading. Cytotoxicity was expressed as the percentage of bioluminescence of the DMSO vehicle control which was set at 0%. If applicable, statistical outliers were determined using Grubbs’ test (alpha = 0.05) and excluded for calculation of the mean ± SD.

hSGLT2 [3] = target: T1, hSGLT2; experiment: cell-based; design: host or cells: CHO-K1; conditions: CHO, read-out: % of control remaining
SGLT1 [4] = target: T2, SGLT1; experiment: cell-based; design: host or cells: CHO-K1; conditions: CHO, read-out: % of control remaining

Row | SMILES | INHIBITED TRANSPORTERS (transporters) | inhibition at 50 µM (SGLT1 [2]) [%] | CYTOTOXICITY (% of vehicle control) Mean (CHO‐hSGLT1/2 cells) | activity (hSGLT2 [1]) [%] | SGLT2/SGLT1 ACTIVITY RATIO 5 uM Mean (hSGLT2 [1]) | activity (SGLT1 [2]) [%] | also measured
1 | CC(C)COCC(CN(Cc1ccccc1)c1ccccc1)N1CCCC1 (stereo not drawn) [Bepridil, bepridil, reference compound] | CACNA1A, CACNA1H, CACNA2D2, KCNH2, KCNQ1, KCNH2 | 74 | – | – | – | – | IC50 (hSGLT2 [1]): 14 µM; inhibition at 50 µM (hSGLT2 [1]): 70%; IC50 (SGLT1 [2]): 10 µM; SGLT1/2 inhibition stated in words (SGLT1 [2]): showed SGLT1/2 inhibition
2 | CCCCN1CCCCC1C(=O)Nc1c(C)cccc1C (stereo not drawn) [Bupivacaine, bupivacaine, reference compound] | SCN10A | 64 | – | – | – | – | IC50 (hSGLT2 [1]): 43 µM; IC50 (SGLT1 [2]): 23 µM; SGLT1/2 inhibition stated in words (SGLT1 [2]): novel SGLT1/2 inhibitors
3 | C[C@@H]1O[C@@H](O[C@H]2[C@H](O[C@H]3CC[C@@]4(C)[C@@H](CC[C@]5(C)[C@@H]4CC=C4[C@@H]6CC(C)(C)CC[C@]6(C(=O)O[C@@H]6O[C@H](CO[C@@H]7O[C@H](CO)[C@@H](O[C@@H]8O[C@@H](C)[C@H](O)[C@@H](O)[C@H]8O)[C@H](O)[C@H]7O)[C@@H](O)[C@H](O)[C@H]6O)CC[C@]45C)[C@]3(C)CO)OC[C@H](O)[C@@H]2O)[C@H](O)[C@H](O)[C@H]1O [Hederacoside C] | – | – | – | – | – | – | CYTOTOXICITY (CHO‐hSGLT1/2 cells): -28; remaining activity at 5 µM (hSGLT2 [3]): 113%; remaining activity at 50 µM (hSGLT2 [3]): 115%; remaining activity at 5 µM (SGLT1 [4]): 97.9%; remaining activity at 50 µM (SGLT1 [4]): 102%
4 | C=C[C@H]1C[N@@]2CC[C@H]1C[C@@H]2[C@@H](O)c1ccnc2ccc(OC)cc12 [Quinidine, quinidine, reference compound] | SLC22A1, SLC22A2, SLC22A5, SLCO1A2, SLC22A4; also recorded: SLC22A8, SLCO1B1 | 50 | – | – | – | – | IC50 (hSGLT2 [1]): 56 µM; remaining activity at 5 µM (hSGLT2 [1]): 92%; remaining activity at 50 µM (hSGLT2 [1]): 51%; inhibition at 50 µM (hSGLT2 [1]): 49%; IC50 (SGLT1 [2]): 62 µM; remaining activity at 5 µM (SGLT1 [2]): 93%; remaining activity at 50 µM (SGLT1 [2]): 50%
5 | CC(=O)OC1c2c(ccc3ccc(=O)oc23)OC(C)(C)C1OC(=O)C=C(C)C (stereo not drawn) [Samidin] | – | – | -10 % of vehicle control | 94 | 1.1 | 85 | –
6 | C/C=C(/C)C(=O)O[C@@H]1Cc2c(ccc3ccc(=O)oc23)OC1(C)C [Selinidin] | – | 12 | -6 % of vehicle control | 94 | 0.952 | 99 | inhibition at 50 µM (hSGLT2 [1]): 25%
7 | COc1cc(/C=C/c2cc(O)cc(O)c2)c2c(c1)O[C@H](c1ccc(OC)c(O)c1)[C@H]2c1cc(O)cc(O)c1 [Shegansu B] | – | – | – | – | – | – | CYTOTOXICITY (CHO‐hSGLT1/2 cells): -25; remaining activity at 5 µM (hSGLT2 [1]): 101%; remaining activity at 50 µM (hSGLT2 [1]): 103%; remaining activity at 5 µM (SGLT1 [2]): 100%; remaining activity at 50 µM (SGLT1 [2]): 100%
8 | COc1ccc(-c2coc3cc(O[C@@H]4O[C@H](CO)[C@@H](O)[C@H](O)[C@H]4O)cc(O)c3c2=O)cc1 [Sissotrin] | – | – | -23 % of vehicle control | 106 | 1.1 | 99 | –
9 | COc1cc(O)cc(/C=C/c2cccc(O)c2)c1 [Thunalbene] | – | – | – | – | – | – | CYTOTOXICITY (CHO‐hSGLT1/2 cells): -81; remaining activity at 5 µM (hSGLT2 [1]): 108%; remaining activity at 50 µM (hSGLT2 [1]): 148%; remaining activity at 5 µM (SGLT1 [2]): 106%; remaining activity at 50 µM (SGLT1 [2]): 145%
10 | CN1[C@@H]2CC[C@H]1C[C@@H](OC(c1ccccc1)c1ccccc1)C2 [benztropine] | SLC6A2, SLC6A3, SCN10A | – | – | – | – | – | –
11 | CC1(C)Oc2ccc3ccc(=O)oc3c2[C@H](O)[C@@H]1O [cis-Khellactone] | – | – | -9 % of vehicle control | 95 | 0.9 | 102 | –
12 | CCC(C)C(=O)O[C@H]1[C@H](OC(C)=O)c2c(ccc3ccc(=O)oc23)OC1(C)C (stereo partly drawn) [peucedanocoumarin I] | – | – | 4.22 % of vehicle control | 102 | 1.1 | 95 | SGLT2/SGLT1‐50μmol/L (ratio of SGLT2 to SGLT1 activities with 50 μmol/L inhibitor) (SGLT1 [2]): 2
13 | CC=C(C)C(=O)O[C@@H]1[C@H](OC(C)=O)c2c(ccc3ccc(=O)oc23)OC1(C)C [praeruptorin A] | – | – | -0.825 % of vehicle control | 111 | 1.2 | 93 | SGLT2/SGLT1‐50μmol/L (ratio of SGLT2 to SGLT1 activities with 50 μmol/L inhibitor) (SGLT1 [2]): 3.1
14 | C/C=C(\C)C(=O)O[C@H]1c2c(ccc3ccc(=O)oc23)OC(C)(C)[C@H]1OC(=O)/C(C)=C/C [praeruptorin D] | – | – | -9 % of vehicle control | 110 | 1.4 | 79 | SGLT2/SGLT1‐50μmol/L (ratio of SGLT2 to SGLT1 activities with 50 μmol/L inhibitor) (SGLT1 [2]): 2.6
15 | CC=C(C)C(=O)O[C@H]1[C@@H](OC(=O)CC(C)C)c2c(ccc3ccc(=O)oc23)OC1(C)C [praeruptorin E] | – | – | -1.25 % of vehicle control | 123 | 1.7 | 73 | SGLT2/SGLT1‐50μmol/L (ratio of SGLT2 to SGLT1 activities with 50 μmol/L inhibitor) (SGLT1 [2]): 3.1
16 | C=C[C@H]1C[N@@]2CC[C@H]1C[C@H]2[C@H](O)c1ccnc2ccc(OC)cc12 [quinine, reference compound] | SLC22A1, SLC22A2, SLC22A5, SLCO1A2, SLC22A4 | 24 | – | – | – | – | remaining activity at 5 µM (hSGLT2 [1]): 92%; remaining activity at 50 µM (hSGLT2 [1]): 66%; inhibition at 50 µM (hSGLT2 [1]): 34%; remaining activity at 5 µM (SGLT1 [2]): 101%; remaining activity at 50 µM (SGLT1 [2]): 76%
17 | Cc1nc2sccn2c(=O)c1CCN1CCC(=C(c2ccc(F)cc2)c2ccc(F)cc2)CC1 [ritanserin, reference compound] | – | – | – | – | – | – | CYTOTOXICITY (CHO‐hSGLT1/2 cells): -5.28; remaining activity at 5 µM (hSGLT2 [1]): 64%; remaining activity at 50 µM (hSGLT2 [1]): 15%; SGLT2/SGLT1‐50μmol/L (ratio of SGLT2 to SGLT1 activities with 50 μmol/L inhibitor) (SGLT1 [2]): 0.3; remaining activity at 5 µM (SGLT1 [2]): 76%; remaining activity at 50 µM (SGLT1 [2]): 44%
18 | CCCN1CCCC[C@H]1C(=O)Nc1c(C)cccc1C [ropivacaine, reference compound] | SCN10A | 30 | – | – | – | – | SGLT1/2 inhibition stated in words (SGLT1 [2]): novel SGLT1/2 inhibitors
19 | CC(CN(C)C)CN1c2ccccc2CCc2ccccc21 (stereo not drawn) [trimipramine, reference compound] | SLC6A2, SLC6A3, SLC6A4 | 43 | – | – | – | – | SGLT1/2 inhibition stated in words (SGLT1 [2]): novel SGLT1/2 inhibitors
20 | COc1ccc(CCN(C)CCCC(C#N)(c2ccc(OC)c(OC)c2)C(C)C)cc1OC (stereo not drawn) [verapamil] | – | – | – | – | – | – | INHIBITED TRANSPORTERS (transporters; sodium (co-)transporters): SLC6A4, SLC22A1, SLC22A4, SLC22A5
21 | COc1ccc(-c2coc3cc(O[C@@H]4O[C@H](CO)[C@@H](O)[C@H](O)[C@H]4O)c(OC)cc3c2=O)cc1 [wistin] | – | – | -51 % of vehicle control | 98 | 1.0 | 99 | Cytotoxicity (percentage of bioluminescence of DMSO vehicle control, set at 0%) (CHO‐hSGLT1/2 cells; CHO‐SGLT1 and CHO‐SGLT2 data combined, ≥20% considered toxic): −51%
